Patent US20110183969A1, “ANTIFUNGAL COMBINATION THERAPY” (priority 2008, published 2011)
In brackets after ≈: the same amount, converted by molar mass.

Assays:
Experiment in all cases: MIC (YAG medium)
Assay type in all cases: cell-based
Aspergillus flavus = conditions: YAG medium, MIC banded into grades; for MIC: Aspergillus flavus, read-out: MIC A. flavus (grade)
Procedure, shortened: (§1)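 MIC in mg/L, defined as >70% growth inhibition relative to drug-free control by optical density at 485 nm. Plates held 24 hrs at 35° C with Aspergillus inocula of 1-2×10^4 cfu/mL in YAG medium (1% glucose, 1% ammonium chloride, 0.5% yeast extract). Compounds tested at 50-0.05 mg/L, repeated at 0.5-0.0005 mg/L where needed.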

[1] = system: Aspergillus fumigatus AF210; conditions: YAG medium, MIC banded into grades, AF210; for MIC: Aspergillus fumigatus, read-out: MIC A. fumigatus 210 (grade)
Procedure, shortened: as §1

[2] = system: Aspergillus fumigatus AF293; conditions: YAG medium, MIC banded into grades, AF293; for MIC: Aspergillus fumigatus, read-out: MIC A. fumigatus (grade)
Procedure, shortened: as §1

Aspergillus niger = conditions: YAG medium, MIC banded into grades; for MIC: Aspergillus niger, read-out: MIC A. niger (grade)
Procedure, shortened: as §1

Aspergillus terreus AT49 = conditions: YAG medium, MIC banded into grades, AT49; for MIC: Aspergillus terreus, read-out: MIC A. terreus 49 (grade)
Procedure, shortened: as §1

Aspergillus terreus AT4 = conditions: YAG medium, MIC banded into grades, AT4; for MIC: Aspergillus terreus, read-out: MIC A. terreus (grade)
Procedure, shortened: as §1

| Structure (SMILES) | MIC (Aspergillus flavus) [µg/mL] | MIC [1] [µg/mL] | MIC [2] [µg/mL] | MIC (Aspergillus niger) [µg/mL] | MIC (Aspergillus terreus AT49) [µg/mL] | MIC (Aspergillus terreus AT4) [µg/mL] | MIC A. flavus (grade) (Aspergillus flavus) | MIC A. fumigatus 210 (grade) [1] | MIC A. fumigatus (grade) [2] | MIC A. niger (grade) (Aspergillus niger) | MIC A. terreus 49 (grade) (Aspergillus terreus AT49) | MIC A. terreus (grade) (Aspergillus terreus AT4) |
| --- | --- | --- | --- | --- | --- | --- | --- | --- | --- | --- | --- | --- |
| Cc1cc(C)nc(N2CCN(c3ccc(NC(=O)C(=O)c4c(C5CCOCC5)cc5ccccn45)cc3)CC2)c1 [Example 66, N-{4-[4-(4,6-Dimethyl-pyridin-2-yl)-piperazin-1-yl]-phenyl}-2-oxo-2-[2-(tetrahydro-pyran-4-yl)-indolizin-3-yl]-acetamide] | < 1 | < 1 | < 1 | < 1 | < 1 | < 1 |  |  |  |  |  |  |
| Cc1cc(C)nc(N(C)CCCN(C)c2ccc(NC(=O)C(=O)c3c(-c4ccccc4)cc4ccccn34)cc2)c1 [Example 67, N-[4-({3-[(4,6-dimethyl-pyridin-2-yl)-methyl-amino]-propyl}-methyl-amino)-phenyl]-2-oxo-2-(2-phenyl-indolizin-3-yl)-acetamide] | < 1 | < 1 | < 1 | < 1 | < 1 | < 1 |  |  |  |  |  |  |
| COCCN(C)c1ccc(N2CCN(c3ccc(NC(=O)C(=O)c4c(-c5ccccc5)cc5ccccn45)cc3)CC2)cn1 [Example 68, N-[4-(4-{6-[(2-Methoxy-ethyl)-methyl-amino]-pyridin-3-yl}-piperazin-1-yl)-phenyl]-2-oxo-2-(2-phenyl-indolizin-3-yl)-acetamide] | < 1 | < 1 | < 1 | < 1 | < 1 | < 1 |  |  |  |  |  |  |
| Cc1cc(C)nc(NCCN(C)c2ccc(NC(=O)C(=O)c3c(-c4ccccc4)cc4ccccn34)cc2)c1 [Example 69, N-(4-{[2-(4,6-dimethyl-pyridin-2-ylamino)-ethyl]-methyl-amino}-phenyl)-2-oxo-2-(2-phenyl-indolizin-3-yl)-acetamide] | < 1 | < 1 | < 1 | < 1 | < 1 | < 1 |  |  |  |  |  |  |
| Cc1cc(OCCOc2ccc(NC(=O)C(=O)c3c(-c4ccccc4)cc4ccccn34)cc2)cc(C)n1 [Example 71, N-{4-[2-(2,6-Dimethyl-pyridin-4-yloxy)-ethoxy]-phenyl}-2-oxo-2-(2-phenyl-indolizin-3-yl)-acetamide] | 1 to 10 (≈ 1.98 to 19.8 µM) | < 1 | < 1 | 1 to 10 (≈ 1.98 to 19.8 µM) | < 1 | < 1 |  |  |  |  |  |  |
| Cc1cc(C)nc(CCCCc2ccc(NC(=O)C(=O)c3c(-c4ccccc4)cc4ccccn34)cc2)c1 [Example 72, N-{4-[4-(4,6-Dimethyl-pyridin-2-yl)-butyl]-phenyl}-2-oxo-2-(2-phenyl-indolizin-3-yl)-acetamide] | < 1 | < 1 | < 1 | < 1 | < 1 | < 1 |  |  |  |  |  |  |
| CCc1cccc(N2CCN(c3ccc(NC(=O)C(=O)c4c(-c5ccccc5)cc5ccccn45)cc3)CC2)n1 [Example 73, N-{4-[4-(6-ethyl-pyridin-2-yl)-piperazin-1-yl]-phenyl}-2-oxo-2-(2-phenyl-indolizin-3-yl)-acetamide] | < 1 | < 1 | < 1 | < 1 | < 1 | < 1 |  |  |  |  |  |  |
| Cc1ccc(N2CCN(c3ccc(NC(=O)C(=O)c4c(-c5ccccc5)cc5ccccn45)cc3)CC2)nc1 [Example 74, N-{4-[4-(5-Methyl-pyridin-2-yl)-piperazin-1-yl]-phenyl}-2-oxo-2-(2-phenyl-indolizin-3-yl)-acetamide] | < 1 | < 1 | < 1 | < 1 | < 1 | < 1 |  |  |  |  |  |  |
| CCc1ccnc(N2CCN(c3ccc(NC(=O)C(=O)c4c(-c5ccccc5)cc5ccccn45)cc3)CC2)c1 [Example 75, N-{4-[4-(4-ethyl-pyridin-2-yl)-piperazin-1-yl]-phenyl}-2-oxo-2-(2-phenyl-indolizin-3-yl)-acetamide] | < 1 | < 1 | < 1 | < 1 | < 1 | < 1 |  |  |  |  |  |  |
| COCCOCCOc1cc(C)nc(N2CCN(c3ccc(NC(=O)C(=O)c4c(-c5ccccc5)cc5ccccn45)cc3)CC2)c1 [Example 76, N-[4-(4-{4-[2-(2-methoxy-ethoxy)-ethoxy]-6-methyl-pyridin-2-yl}-piperazin-1-yl)-phenyl]-2-oxo-2-(2-phenyl-indolizin-3-yl)-acetamide] | < 1 | < 1 | < 1 | < 1 | < 1 | < 1 |  |  |  |  |  |  |
| O=C(Nc1ccc(N2CCN(c3ccc(CN4CCOCC4)cn3)CC2)cc1)C(=O)c1c(-c2ccccc2)cc2ccccn12 [Example 77, N-{4-[4-(5-morpholin-4-yl-methyl-pyridin-2-yl)-piperazin-1-yl]-phenyl}-2-oxo-2-(2-phenyl-indolizin-3-yl)-acetamide] |  |  |  |  |  |  | 3 (A grade of 3 represents an MIC of less than 1 mg/L) | 3 (A grade of 3 represents an MIC of less than 1 mg/L) | 3 (A grade of 3 represents an MIC of less than 1 mg/L) | 3 (A grade of 3 represents an MIC of less than 1 mg/L) | 3 (A grade of 3 represents an MIC of less than 1 mg/L) | 3 (A grade of 3 represents an MIC of less than 1 mg/L) |
| Cc1cc(C)nc(N(C)CCNc2ccc(NC(=O)C(=O)c3c(-c4ccccc4)cc4ccccn34)cc2)c1 [Example 78, N-(4-{2-[(4,6-Dimethyl-pyridin-2-yl)-methyl-amino]-ethylamino}-phenyl)-2-oxo-2-(2-phenyl-indolizin-3-yl)-acetamide] | < 1 | < 1 | < 1 | < 1 | < 1 | < 1 |  |  |  |  |  |  |
| Cc1cc(C)nc(N2CCC(O)(c3ccc(NC(=O)C(=O)c4c(-c5ccccc5)cc5ccccn45)cc3)CC2)c1 [Example 79, N-[4-(4-hydroxy-4′,6′-dimethyl-3,4,5,6-tetrahydro-2H-[1,2′]-bipyridinyl-4-yl)-phenyl]-2-oxo-2-(2-phenyl-indolizin-3-yl)-acetamide] | > 10 | > 10 | > 10 | > 10 | > 10 | > 10 |  |  |  |  |  |  |
| Cc1cc(C)nc(N2CCN(c3ccc(NC(=O)C(=O)c4c(-c5ccccc5)cc5ccccn45)c(C)c3)CC2)c1 [Example 80, N-{4-[4-(4,6-Dimethyl-pyridin-2-yl)-piperazin-1-yl]-2-methyl-phenyl}-2-oxo-2-(2-phenyl-indolizin-3-yl)-acetamide] | < 1 | < 1 | < 1 | < 1 | < 1 | < 1 |  |  |  |  |  |  |
| COCc1cc(NC(=O)C(=O)c2c(-c3ccccc3)cc3ccccn23)ccc1N1CCN(c2cc(C)cc(C)n2)CC1 [Example 81, N-{4-[4-(4,6-Dimethyl-pyridin-2-yl)-piperazin-1-yl]-3-methoxymethyl-phenyl}-2-oxo-2-(2-phenyl-indolizin-3-yl)-acetamide] | < 1 | < 1 | < 1 | < 1 | < 1 | < 1 |  |  |  |  |  |  |
| Cc1cc(C)nc(N2CCN(c3ccc(NC(=O)C(=O)c4c(-c5ccccc5)cc5ccccn45)cc3C)CC2)c1 [Example 82, N-{4-[4-(4,6-Dimethyl-pyridin-2-yl)-piperazin-1-yl]-3-methyl-phenyl}-2-oxo-2-(2-phenyl-indolizin-3-yl)-acetamide] | < 1 | < 1 | < 1 | < 1 | < 1 | < 1 |  |  |  |  |  |  |
| COCc1cc(N2CCN(c3cc(C)cc(C)n3)CC2)ccc1NC(=O)C(=O)c1c(-c2ccccc2)cc2ccccn12 [Example 83, N-{4-[4-(4,6-Dimethyl-pyridin-2-yl)-piperazin-1-yl]-2-methoxymethyl-phenyl}-2-oxo-2-(2-phenyl-indolizin-3-yl)-acetamide] | < 1 | < 1 | < 1 | < 1 | < 1 | < 1 |  |  |  |  |  |  |
| Cc1cc(C)nc(N2CCN(c3ccc(NC(=O)C(=O)c4c(-c5ccccc5)cc5ccccn45)cc3C(=O)O)CC2)c1 [Example 84, 2-[4-(4,6-Dimethyl-pyridin-2-yl)-piperazin-1-yl]-5-[2-oxo-2-(2-phenyl-indolizin-3-yl)-acetylamino]-benzoic acid] | < 1 | 1 to 10 (≈ 1.74 to 17.4 µM) | < 1 | 1 to 10 (≈ 1.74 to 17.4 µM) | 1 to 10 (≈ 1.74 to 17.4 µM) | 1 to 10 (≈ 1.74 to 17.4 µM) |  |  |  |  |  |  |
| O=C(Nc1ccc(-c2cocn2)cc1)C(=O)c1c(-c2ccc(-c3ccccc3)cc2)cc2ccccn12 [Example 85, 2-(2-Biphenyl-4-yl-indolizin-3-yl)-N-(4-oxazol-4-yl-phenyl)-2-oxo-acetamide] | < 1 | > 10 | > 10 | > 10 | < 1 | < 1 |  |  |  |  |  |  |
| O=C(Nc1ccc(N2CCN(c3cccc(N(CCO)CCO)n3)CC2)cc1)C(=O)c1c(-c2ccccc2)cc2ccccn12 [Example 86, N-[4-(4-{6-[Bis-(2-hydroxy-ethyl)-amino]-pyridin-2-yl}-piperazin-1-yl)-phenyl]-2-oxo-2-[2-phenyl-indolizin-3-yl)-acetamide] | < 1 | 1 to 10 (≈ 1.65 to 16.5 µM) | < 1 | 1 to 10 (≈ 1.65 to 16.5 µM) | 1 to 10 (≈ 1.65 to 16.5 µM) | 1 to 10 (≈ 1.65 to 16.5 µM) |  |  |  |  |  |  |
